Patent US12458732B2, “Porous composites with high-aspect ratio crystals” (W. L. Gore & Associates, Inc., priority 2013, dated 2025)

Tests used:
[1] = test system: carotid artery endothelial layer; assay: ex vivo transfer of drug crystals from an ePTFE substrate to a vascular tissue; design: species or system swine; details: 60 sec compression at 5.4 atm
Procedure: Substrates of ePTFE of Examples 1 and 2 were coated with paclitaxel (10 mg/ml) or paclitaxel/urea (1:1 mass ratio; 10 mg/ml paclitaxel) according to Example 4. The substrates were examined under SEM to confirm the presence of high aspect paclitaxel crystal habits embedded and oriented in the ePTFE microstructure.
A freshly harvested carotid artery from >2 yr old swine (Animal Technologies Inc., Tyler TX) was slit axially using a scalpel blade, cut lengthwise into portions, everted, and the portions adhered to a glass microscope slide using cyanoacrylate adhesive (Loctite), luminal aspect up. Tissue portions were kept wet using phosphate-buffered saline until use.
The glass microscope slide containing the artery portion was gently placed, tissue side down, upon the coated ePTFE substrate, to expose the endothelial layer to the paclitaxel crystals. The endothelial layer was compressed at about 5.4 atm against the coated ePTFE substrate for 60 sec. The glass microscope slide containing the artery portion was then examined under SEM.

[2] = ethylene oxide sterilization of coated ePTFE substrates, SEM visualization; format: physicochemical; details: conditioning about 24 hr, EtO dwell about 22 hr, 64° C., aeration about 12 hrs; samples of Examples 6 and 7
Procedure: Representative samples of Examples 6 and 7 were exposed to ethylene oxide sterilization, under conditions of conditioning for about 24 hr, an EtO gas dwell time of about 22 hr, a set point temperature of 64° C., and an aeration time of about 12 hrs. The samples were then visualized with SEM.

## CC(=O)O[C@H]1C(=O)[C@@]2(C)[C@H]([C@H](OC(=O)c3ccccc3)[C@]3(O)C[C@H](OC(=O)[C@H](O)[C@@H](NC(=O)c4ccccc4)c4ccccc4)C(C)=C1C3(C)C)[C@]1(OC(C)=O)CO[C@@H]1C[C@@H]2O [paclitaxel]
[1]
  high aspect ratio of the crystals after compression (mechanical stability and strength): intact
[2]
  acicular habits, geometry, penetration into ePTFE and angles of projection after ethylene oxide sterilization: unaffected
